Experimental data reported in US10577610B2, “EpCAM aptamers and conjugates thereof” (Deakin University, priority 2015, dated 2020).
[invdT] = inverted (3'-3') thymidine; {TYE665} = TYE665 fluorescent dye

Key:
bEnd.3 cells = experiment: Confocal microscopy internalisation into bEnd.3 cells; type: cell-based, mouse; settings: for Internalisation into TfR-expressing bEnd.3 cells: conjugate aptamers, 400 nM, two hour, confocal microscopy
Procedure: Confocal microscopy was used as a means of visualising aptamer internalisation into the cells. Both aptamers and cells were prepared in the same manner as described above before they were mixed and allowed to incubate at 37° C. The aptamers were used at a concentration of 200 nM and were allowed to incubate for 60 minutes. The concentration for the conjugate (bifunctional) aptamers was 400 nM and these were incubated with the cells for 120 minutes. Ten minutes prior to end of incubation, 2 μL of Hoechst nuclear stain (10 mg/mL) was added to cells. Cells were then washed three times with 100 μL of PBS as described above and resuspended in 20 μL (8×10^5 cells/well) in an 8-chambered slide (Lab-Tek II, Nunc) for visualisation. Cells were incubated in blocking buffer for 60 mins followed by resuspension in binding buffer containing the aptamer and incubated for 60 mins at 37° C. […] The aptamer solution was removed and the cells were washed three times for 5 min each in PBS prior to visualisation using a FluoView FV10i laser scanning confocal microscope (Olympus). In order to assess the mechanism of cellular uptake, the internalisation of a phycoethyrin-labelled rat anti-mouse TfR monoclonal antibody (R17217; Abcam) was also visualised by confocal microscopy by co-incubating it with the aptamer at 1 μg/mL for 30 minutes. The uptake of these aptamers into cells is an important factor in determining the potential for use as therapeutics. The anti-transferrin receptor aptamers generated herein are designed to pass through the BBB via the active transcytosis pathway. […] This was done by visualising the internalisation of aptamers at a concentration of 200 nM into bEnd.3 and MOLT4 cells over the course of a one hour incubation with confocal microscopy. Aptamers are relatively new molecular tools in the field of diagnostics and therapeutics. […] The performance of the aptamer with a corresponding antibody was compared by examining uptake in bEnd.3 cells. This was done by incubating the highest affinity aptamer, TfR3, and the anti-TfR antibody with the bEnd.3 cells and observing them via confocal microscopy. The anti-TfR aptamers generated herein are intended to be used as drug delivery agents capable of crossing the blood-brain barrier (BBB). In an in vivo or clinical setting, these would need to pass from the bloodstream and into the BBB endothelial monolayer before exiting on the other side into the brain parenchyma. Given this, it is vital that these are not only capable of entered cells via active transport processes, but can also exocytose out again. Therefore, a time course internalisation experiment was conducted in order to establish whether or not the aptamers are being retained in the cells or are returning to the extracellular fluid. […]

[1] = test system: in vitro BBB model (bEnd.3 endothelial monolayer); experiment: Aptamer permeability across in vitro blood brain barrier model (HEY-bEnd.3 co-culture); type: in vitro ADME, mouse; settings: 2 μM in upper compartment, three hours
Procedure: In order to assess the ability of the TfR containing aptamers to pass through an endothelial cell monolayer via receptor mediated transport (RMT) an in vitro model of the BBB was produced as shown schematically in FIG. 1. Transwell inserts (polyethylene terephthalate (PET) with 0.4 μm diameter pores) within a 24-well plate (Corning) were incubated with 100 μL of 50% Collagen IV for 2 hours at 37° C. Flasks of bEnd.3 cells were trypsinised to generate a single-cell suspension, and counted using a haemocytometer and trypan blue to ensure that a sufficient proportion of cells were alive. These were then centrifuged and resuspended in media. Wells were filled with 800 μL of serum-free media and transwell inserts were placed on top. Cells were then seeded in 90 μL of serum-free media at a density of 1×10^6 cells/cm^2 and were allowed to incubate at 37° C. Cells were allowed to settle for 6 hours and then 60 μL of enhanced media (DMEM low glucose: Ham's F12 (1:1), (both serum-free) 550 nM hydrocortisone, 32 μM cAMP, 17.5 μM aminophylline, 1 μM retinoic acid, 5 μg/mL insulin, 2.75 μg/mL transferrin, 2.5 ng/mL sodium selenite, 100 ng/mL bFGF (basic fibroblast growth factor), 20 ng/mL EGF (epidermal growth factor)) (Wuest D M et al (2013) Journal of Neuroscience Methods 212(2):211-21) was added to the transwells. Media in both compartments were replaced the next day with enhanced media in order to supplement the growth of the monolayer.
HEY cells were subcultured and counted using a haemocytometer and trypan blue in order to assess the percentage of living cells. Subsequently, they were diluted in DMEM media at a concentration of 87 500 cells/mL. Media was removed from the bottom compartment of the in vitro BBB model and replaced with 800 μL of the HEY cell solution, seeding at 70 000 cells per well. These were allowed to incubate overnight. Next, media was removed from the upper compartment of the transwells and 100 μL of aptamer at a concentration of 2 μM was pipetted on top of the transwell membrane. […]

Bi1: aptamer conjugate based on TfR1 and scrambled EpCAM binding loop, negative control, SEQ ID NO:8 (GCGCGTGCACGCGCTAACGGATTCCTTTTCCGN; listed as DNA, further chemistry not given here)
Internalisation into TfR-expressing bEnd.3 cells (bEnd.3 cells): not
Internalisation into HEY cells in bottom compartment after incubation on in vitro BBB model [1]: not observed inside HEY cells

5′-GCGCGGGCCCGCGCTAACGGAGGTTGCGTCCGT-3′ (GCGCGGGCCCGCGCTAACGGAGGTTGCGTCCGN; DNA sequence of aptamer conjugate Bi2; (33)..(33) n is t or 3′ inverted deoxythymidine (dT))
Internalisation into TfR-expressing bEnd.3 cells (bEnd.3 cells): internalised
Internalisation into HEY cells in bottom compartment after incubation on in vitro BBB model [1]: observed to become internalised into the HEY cells

5′-GCGCGGTACCGCGCTAACGGAGGTTGCGTCCGT-3′ (GCGCGGTACCGCGCTAACGGAGGTTGCGTCCGN; listed as DNA, chemistry not given here) [Bi3]
Internalisation into TfR-expressing bEnd.3 cells (bEnd.3 cells): internalised
Internalisation into HEY cells in bottom compartment after incubation on in vitro BBB model [1]: observed to become internalised into the HEY cells

TfR3: version of TfR1 with scrambled binding loop sequence, SEQ ID NO:6 (DNA GCGTGGTACCACGC; DNA, 5' {TYE665}, 3' [invdT], backbone not given here)
Co-localisation with the anti-TfR antibody (bEnd.3 cells; bEnd.3 cells, co-incubation with antibody R17217): observed
